Results as given in paper PMC8678482, “Suppression of the Lycopene Cyclase Gene Causes Downregulation of Ascorbate Peroxidase Activity and Decreased Glutathione Pool Size, Leading to H2O2 Accumulation in Euglena gracilis” (Frontiers in Plant Science, 2021).

Target: T1, EgLCY (Euglena gracilis, UniProt A0A7I8I611)
T1 construct: gene lcy; full-length open reading frame in pETDuet-1 (pET-EgLCY, NcoI In-Fusion), expressed in lycopene-accumulating E. coli BL21(DE3) carrying pACCRT-EIB
T1 sequence (A0A7I8I611 1-652): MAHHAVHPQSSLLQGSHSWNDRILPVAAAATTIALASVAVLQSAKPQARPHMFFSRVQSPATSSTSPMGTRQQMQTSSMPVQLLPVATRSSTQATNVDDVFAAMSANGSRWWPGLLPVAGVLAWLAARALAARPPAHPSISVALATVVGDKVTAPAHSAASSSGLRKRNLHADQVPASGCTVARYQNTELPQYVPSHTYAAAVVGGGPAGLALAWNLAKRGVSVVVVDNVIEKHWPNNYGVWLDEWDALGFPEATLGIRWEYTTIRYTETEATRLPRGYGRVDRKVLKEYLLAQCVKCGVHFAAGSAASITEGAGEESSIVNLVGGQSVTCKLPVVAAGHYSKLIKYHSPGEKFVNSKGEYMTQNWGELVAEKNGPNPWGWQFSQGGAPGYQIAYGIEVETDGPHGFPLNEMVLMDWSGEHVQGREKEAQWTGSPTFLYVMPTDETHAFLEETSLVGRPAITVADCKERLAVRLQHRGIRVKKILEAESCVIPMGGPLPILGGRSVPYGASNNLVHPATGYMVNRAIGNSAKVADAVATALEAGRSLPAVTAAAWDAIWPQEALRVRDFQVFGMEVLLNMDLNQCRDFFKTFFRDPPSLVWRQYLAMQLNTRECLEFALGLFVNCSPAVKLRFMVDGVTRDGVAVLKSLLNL
Assay: in vivo conversion in lycopene-accumulating E. coli, HPLC of carotenoid extracts
Assay type: cell-based
Conditions: co-expression with Pantoea ananatis crtE, crtB, crtI; 48 h at 21°C after IPTG

SMILES | in vivo conversion in lycopene-accumulating E. coli, HPLC of carotenoid extracts
CC(C)=CCC/C(C)=C/C=C/C(C)=C/C=C/C(C)=C/C=C/C=C(C)/C=C/C=C(C)/C=C/C=C(\C)CCC=C(C)C [lycopene] | This indicates that EgLCY is a lycopene β-cyclase that converts lycopene to β-carotene.
CC1=C(/C=C/C(C)=C/C=C/C(C)=C/C=C/C=C(C)/C=C/C=C(C)/C=C/C2=C(C)CCCC2(C)C)C(C)(C)CCC1 [β-carotene] | accumulated β-carotene as the main carotenoid when the EgLCY gene was co-expressed
